Laboratory results: patent publication US11453660B2, “Androgen receptor and glucocorticoid receptor modulators” (ONCOSTELLAE, S.L., priority 2017, dated 2022)

target: T1, Human Glucocorticoid Receptor (Homo sapiens, UniProt P04150); assay: Competition Binding in IM-9 Human Glucocorticoid Receptor (GR IM-9); conditions: cytosol from IM-9 cell line, 1.5 nM [3H]-Dexamethasone, 4° C. for 6 hours
T1 construct: endogenous in cells; host or cells: cytosol from IM-9 cell line
T1 sequence (P04150 1-777): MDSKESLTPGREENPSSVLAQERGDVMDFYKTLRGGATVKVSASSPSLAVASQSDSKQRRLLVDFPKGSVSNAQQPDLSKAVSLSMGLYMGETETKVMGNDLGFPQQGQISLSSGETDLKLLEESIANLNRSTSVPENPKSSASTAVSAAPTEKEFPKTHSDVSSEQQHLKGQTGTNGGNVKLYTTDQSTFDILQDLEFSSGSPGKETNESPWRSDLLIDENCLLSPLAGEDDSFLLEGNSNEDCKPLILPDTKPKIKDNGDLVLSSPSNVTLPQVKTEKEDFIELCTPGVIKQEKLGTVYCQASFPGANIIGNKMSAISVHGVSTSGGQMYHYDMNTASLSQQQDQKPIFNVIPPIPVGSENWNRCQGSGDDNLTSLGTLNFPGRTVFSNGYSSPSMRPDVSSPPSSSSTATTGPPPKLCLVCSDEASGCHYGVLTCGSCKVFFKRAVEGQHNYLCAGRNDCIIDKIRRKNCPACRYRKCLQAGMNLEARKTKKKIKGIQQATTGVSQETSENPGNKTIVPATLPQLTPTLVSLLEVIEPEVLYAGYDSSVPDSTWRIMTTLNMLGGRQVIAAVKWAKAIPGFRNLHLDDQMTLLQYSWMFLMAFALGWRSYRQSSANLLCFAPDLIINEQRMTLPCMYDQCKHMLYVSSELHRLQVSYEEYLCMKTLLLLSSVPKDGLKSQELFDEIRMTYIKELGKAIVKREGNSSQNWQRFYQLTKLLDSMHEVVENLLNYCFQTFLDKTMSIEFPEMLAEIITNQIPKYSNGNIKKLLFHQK
Experimental: Competition Binding in IM-9 Human Glucocorticoid Receptor (GR IM-9)
Glucocorticoid receptor competition binding assays were carried out in a polypropilene 96-well plate. In each well was incubated 100 μg of cytosol from IM-9 cell line, 1.5 nM [3H]-Dexamethasone (71 Ci/mmol, 1 mCi/ml, Perkin Elmer NET1192001MC) and compounds studied and standard. Non-specific binding was determined in the presence of Triamcinolone 10 μM (Sigma Aldrich T6376).
The reaction mixture (Vt: 200 μl/well) was incubated at 4° C. for 6 hours, 180 μL was transferred to GF/B 96-well plate (Millipore, Madrid, Spain) pretreated with 0.5% of PEI and treated with binding buffer (TES 10 mM, sodium molybdate 10 mM, EDTA 1 mM, pH 7.4, 2-mercaptoethanol 20 mM, Glycerol 10%) after was filtered and washed six times with 250 μl wash buffer (TES 10 mM, sodium molybdate 10 mM, EDTA 1 mM, pH 7.4, 2-mercaptoethanol 20 mM Glycerol 10%), before measuring in a microplate beta scintillation counter (Microbeta Trilux, PerkinElmer, Madrid, Spain).

| Compound | IC50 |
| --- | --- |
| COC(=O)C1=C(COCCN)NC(C)=C(C(C)=O)C1c1csc2ccccc12 (stereo not drawn) [Example C114, Methyl 5-acetyl-2-((2-aminoethoxy)methyl)-4-(benzo[b]thiophen-3-yl)-6-methyl-1,4-dihydropyridine-3-carboxylate] | ≥ 1000 nM |
| COC(=O)C1=C(COCCN)NC(C)=C(C(C)=O)C1c1csc2c(Br)cccc12 (stereo not drawn) [Example C115, Methyl 5-acetyl-2-((2-aminoethoxy)methyl)-4-(7-bromobenzo[b]thiophen-3-yl)-6-methyl-1,4-dihydropyridine-3-carboxylate] | ≥ 1000 nM |
| COC(=O)C1=C(COCCN)NC(C)=C(C(C)=O)C1c1csc2c(C#N)cccc12 (stereo not drawn) [Example C116, Methyl 5-acetyl-2-((2-aminoethoxy)methyl)-4-(7-cyanobenzo[b]thiophen-3-yl)-6-methyl-1,4-dihydropyridine-3-carboxylate] | 100 to 1000 nM |
| COC(=O)C1=C(N)NC(C)=C(C(C)=O)C1c1csc2c(C#N)cccc12 (stereo not drawn) [Example D5, Methyl 5-acetyl-2-amino-4-(7-cyanobenzo[b]thiophen-3-yl)-6-methyl-1,4-dihydropyridine-3-carboxylate] | < 100 nM |
| CC(=O)C1=C(C)NC(N)=C(C(=O)OC2CCCC2)C1c1csc2c(C#N)cccc12 (stereo not drawn) [Example D8, Cyclopentyl 5-acetyl-2-amino-4-(7-cyanobenzo[b]thiophen-3-yl)-6-methyl-1,4-dihydropyridine-3-carboxylate] | < 100 nM |
| CC(=O)C1=C(C)NC(N)=C(C(=O)OCC2CC2)C1c1csc2c(C#N)cccc12 (stereo not drawn) [Example D10, Cyclopropylmethyl 5-acetyl-2-amino-4-(7-cyanobenzo[b]thiophen-3-yl)-6-methyl-1,4-dihydropyridine-3-carboxylate] | < 100 nM |
| CC(=O)C1=C(C)NC(N)=C(C(=O)OC2CCC(F)(F)CC2)C1c1csc2c(C#N)cccc12 (stereo not drawn) [Example D11, 4,4-difluorocyclohexyl 5-acetyl-2-amino-4-(7-cyanobenzo[b]thiophen-3-yl)-6-methyl-1,4-dihydropyridine-3-carboxylate] | < 100 nM |
| COC(=O)C1=C(N)NC(C)=C(C#N)C1c1csc2c(C#N)cccc12 (stereo not drawn) [Example D12, Methyl 2-amino-5-cyano-4-(7-cyanobenzo[b]thiophen-3-yl)-6-methyl-1,4-dihydropyridine-3-carboxylate] | < 100 nM |
| CC(=O)C1=C(C)NC(N)=C(C(=O)OCc2ccc(F)cc2)C1c1csc2c(C#N)cccc12 (stereo not drawn) [Example D13, 4-fluorobenzyl 5-acetyl-2-amino-4-(7-cyanobenzo[b]thiophen-3-yl)-6-methyl-1,4-dihydropyridine-3-carboxylate] | < 100 nM |
| COC(=O)C1=C(N)NC(C)=C(C(C)=O)C1c1csc2ncc(F)cc12 (stereo not drawn) [Example D14, Methyl 5-acetyl-2-amino-4-(5-fluorothieno[2,3-b]pyridin-3-yl)-6-methyl-1,4-dihydropyridine-3-carboxylate] | ≥ 1000 nM |
| COC(=O)C1=C(NC(C)=O)NC(C)=C(C(C)=O)C1c1csc2ncc(F)cc12 (stereo not drawn) [Example D15, Methyl 2-acetamido-5-acetyl-4-(5-fluorothieno[2,3-b]pyridin-3-yl)-6-methyl-1,4-dihydropyridine-3-carboxylate] | 100 to 1000 nM |
| CC(=O)C1=C(C)NC(N)=C(C(=O)OCC2CCCC2)C1c1csc2c(C#N)cccc12 (stereo not drawn) [Example D16, Cyclopentylmethyl 5-acetyl-2-amino-4-(7-cyanobenzo[b]thiophen-3-yl)-6-methyl-1,4-dihydropyridine-3-carboxylate] | < 100 nM |
| COC(=O)C1=C(C)NC(N)=C(C(=O)OCC2CC2)C1c1csc2c(C#N)cccc12 (stereo not drawn) [Example D17, 3-(cyclopropylmethyl) 5-methyl 2-amino-4-(7-cyanobenzo[b]thiophen-3-yl)-6-methyl-1,4-dihydropyridine-3,5-dicarboxylate] | < 100 nM |
| COC(=O)C1=C(N)NC(C2CC2)=C(C(=O)OC)C1c1csc2c(C#N)cccc12 (stereo not drawn) [Example D18, Dimethyl 2-amino-4-(7-cyanobenzo[b]thiophen-3-yl)-6-cyclopropyl-1,4-dihydropyridine-3,5-dicarboxylate] | < 100 nM |
| COC(=O)C1=C(C2CC2)NC(N)=C(C(=O)OCC2CC2)C1c1csc2c(C#N)cccc12 (stereo not drawn) [Example D19, 3-(cyclopropylmethyl) 5-methyl 2-amino-4-(7-cyanobenzo[b]thiophen-3-yl)-6-cyclopropyl-1,4-dihydropyridine-3,5-dicarboxylate] | < 100 nM |

The remaining lines, values ahead:

| IC50 | Compound |
| --- | --- |
| 100 to 1000 nM | COC(=O)C1=C(N)NC(N)=C(C(=O)OC)C1c1csc2c(C#N)cccc12 [Example D20, dimethyl 2,6-diamino-4-(7-cyanobenzo[b]thiophen-3-yl)-1,4-dihydropyridine-3,5-dicarboxylate] |
| < 100 nM | COC(=O)C1=C(N)NC(C2CC2)=C(C(=O)OCC2CC2)C1c1csc2c(C#N)cccc12 (stereo not drawn) [Example D21, 5-(cyclopropylmethyl) 3-methyl 2-amino-4-(7-cyanobenzo[b]thiophen-3-yl)-6-cyclopropyl-1,4-dihydropyridine-3,5-dicarboxylate] |
| 100 to 1000 nM | CC(=O)C1=C(C)NC(N)=C(C(=O)OCC2CC2)C1c1csc2cc(C#N)ccc12 (stereo not drawn) [Example D28, Cyclopropylmethyl 5-acetyl-2-amino-4-(6-cyanobenzo[b]thiophen-3-yl)-6-methyl-1,4-dihydropyridine-3-carboxylate] |
| < 100 nM | COC(=O)C1=C(C)NC(N)=C(C(=O)OCC2CC2)C1c1csc2c(C#N)ccnc12 (stereo not drawn) [Example D44, 3-(Cyclopropylmethyl) 5-methyl 2-amino-4-(7-cyanothieno[3,2-b]pyridin-3-yl)-6-methyl-1,4-dihydropyridine-3,5-dicarboxylate] |
| < 100 nM | COC(=O)C1=C(C)NC(N)=C(C(=O)OCC2CC2)C1c1csc2c(C#N)cc(C#N)cc12 (stereo not drawn) [Example D48, 3-(Cyclopropylmethyl) 5-methyl 2-amino-4-(5,7-dicyanobenzo[b]thiophen-3-yl)-6-methyl-1,4-dihydropyridine-3,5-dicarboxylate] |
| < 100 nM | COC(=O)C1=C(C)NC(N)=C(C(=O)OCC(F)(F)F)C1c1csc2c(C#N)cccc12 (stereo not drawn) [Example D50, 5-Methyl 3-(2,2,2-trifluoroethyl) 2-amino-4-(7-cyanobenzo[b]thiophen-3-yl)-6-methyl-1,4-dihydropyridine-3,5-dicarboxylate] |
| < 100 nM | CC1=C(C(=O)OCC(F)(F)F)C(c2csc3c(C#N)cccc23)C(C(=O)OCC2CC2)=C(N)N1 (stereo not drawn) [Example D51, 3-(Cyclopropylmethyl) 5-(2,2,2-trifluoroethyl) 2-amino-4-(7-cyanobenzo[b]thiophen-3-yl)-6-methyl-1,4-dihydropyridine-3,5-dicarboxylate] |
| < 100 nM | COC(=O)C1=C(C)NC(N)=C(C(=O)OCC2CC2)C1c1csc2c(C#N)c(Cl)ccc12 (stereo not drawn) [Example D52, 3-(Cyclopropylmethyl) 5-methyl 2-amino-4-(6-chloro-7-cyanobenzo[b]thiophen-3-yl)-6-methyl-1,4-dihydropyridine-3,5-dicarboxylate] |
| < 100 nM | COC(=O)C1=C(C)NC(N)=C(C(=O)OCC(C)(C)F)C1c1csc2c(C#N)cccc12 (stereo not drawn) [Example D53, 3-(2-Fluoro-2-methylpropyl) 5-methyl 2-amino-4-(7-cyanobenzo[b]thiophen-3-yl)-6-methyl-1,4-dihydropyridine-3,5-dicarboxylate] |
| < 100 nM | COC(=O)C1=C(C)NC(N)=C(C(=O)OCC2CC2)C1c1csc2c(C#N)c(C(F)(F)F)ccc12 (stereo not drawn) [Example D54, 3-(Cyclopropylmethyl) 5-methyl 2-amino-4-(7-cyano-6-(trifluoromethyl)benzo[b]thiophen-3-yl)-6-methyl-1,4-dihydropyridine-3,5-dicarboxylate] |
| < 100 nM | C#CCOC(=O)C1=C(N)NC(C)=C(C(=O)OC)C1c1csc2c(C#N)cccc12 (stereo not drawn) [Example D55, 5-Methyl 3-prop-2-yn-1-yl 2-amino-4-(7-cyanobenzo[b]thiophen-3-yl)-6-methyl-1,4-dihydropyridine-3,5-dicarboxylate] |
| < 100 nM | COC(=O)C1=C(C(F)(F)F)NC(N)=C(C(=O)OCC2CC2)C1c1csc2c(C#N)cccc12 (stereo not drawn) [Example D56, 3-(Cyclopropylmethyl) 5-methyl 2-amino-4-(7-cyanobenzo[b]thiophen-3-yl)-6-(trifluoromethyl)-1,4-dihydropyridine-3,5-dicarboxylate] |
